Source: patent publication US5849779A, “Pyrazole derivatives and their pharmaceutical use” (Japan Energy Corporation, priority 1996, dated 1998)

Assays:
[1] = tested on: Human coronary artery smooth muscle cells; experiment: Inhibiting effect on PDGF-stimulated smooth muscle cell growth (3H-thymidine method); format: cell-based; conditions: PDGF-BB 20 ng/mL, 16 h
Experimental: Effect on PDGF-stimulated smooth muscle cell growth was estimated by the following method to verify inhibitory activity of the pyrazole derivative of the present invention against smooth muscle cell growth. (Test method)
Human coronary artery smooth muscle cells seeded on a 96-well plate (2×10^4 cell/well) were incubated in a complete medium consisting of a basal medium (SmGM-2: Iwaki Glass Co., Japan), FBS (5%), EGF (0.5 ng/mL), insulin (0.005 mg/mL), and basic-FGF (2 ng/mL) for 24 h until confluent. The medium was replaced by the basal medium followed by incubation for further 24 h to lead cells to GO stage.
The medium was replaced by a medium consisting of the basal medium and PDGF-BB (20 ng/mL) to induce PDGF-stimulated cell growth, and a DMSO solution of a test sample was added followed by incubation for 16 h. Then, inhibition of cell growth was estimated by a ^3 H-thymidine method as described in Example 22.
Tranilast was used as positive reference.

re-narrowing = conditions: Rinsho Iyaku, 12, 65-85 (1996); cited from earlier work
hepatic function = conditions: clinical use; cited from earlier work
BALB/c 3T3 cells = experiment: Inhibiting effect on PDGF-stimulated cell growth (3H-thymidine uptake); format: cell-based; conditions: Mus musculus, BALB/c3T3, PDGF-AA or PDGF-BB 10 ng/mL, 16 h; for inhibition at 3 µM: concentration 3 μM
Experimental: Effect on PDGF-stimulated cell growth was estimated by the following method using fibroblasts, growth of which is induced by PDGF in the same manner of smooth muscle cells to verify inhibitory activity of the pyrazole derivative of the present invention against PDGF-stimulated cell growth.
BALB/c 3T3 cells seeded on a 96-well plate (3-5×10^3 cell/well) were incubated in a high glucose Dulbecco's modified Eagle's medium (DME medium) containing 10% fetal bovine sera (FBS) for 2-3 days until confluent. The medium was replaced by high glucose DME medium containing 0.5% platelet poor plasma (PPP) followed by incubation for further 24 h.
The medium was replaced by high glucose DME medium containing PDGF-AA or PDGF-BB (10 ng/mL) to induce PDGF-stimulated cell growth, and a DMSO solution of a test sample was added followed by incubation for 16 h. Then, ^3 H-thymidine (1 mCi/ml) was 20-fold diluted by Ca^2+ and Mg^2+ free phosphate-bufferized saline, and 0.02 mL of the resulted solution was added followed by incubation for further 4 h. Final concentration of DMSO was not more than 0.25%.
After ^3 H-thymidine in the medium was washed out, cells were treated with trypsin/EDTA and collected using a cell-harvester. Amount of ^3 H-thymidine taken in the cells was measured by a liquid scintillation counter. […] Growth inhibition was estimated by difference of the amount of ^3 H-thymidine taken between the test incubation and the reference incubation.

smooth muscle cell [2] = conditions: as reported in literature; cited from earlier work
smooth muscle cell [3] = conditions: Atherosclerosis, 107, 179-185 (1994); cited from earlier work

SMILES | IC50 [1] [nM] | inhibition at 3 µM (BALB/c 3T3 cells) [%] | further results
CCOC(=O)c1cn(Cc2ccccc2)nc1NC(=O)N(c1ccccc1)c1ccccc1 [Example 16, N, N-diphenyl-N'-(1-benzyl-4-ethoxycarbonylpyrazol-3-yl)urea] | 1100 | – | –
CCOC(=O)c1cn(Cc2ccccc2)nc1N(Cc1ccccc1)C(=O)Nc1ccccc1 [Example 18, N-phenyl-N'-benzyl-N'-(1-benzyl-4-ethoxycarbonylpyrazol-3-yl)urea] | 3000 | – | –
COc1ccc(/C=C/C(=O)Nc2ccccc2C(=O)O)cc1OC [tranilast, N-(3,4-dimethoxycinnamoyl) anthranilic acid, reference compound] | 5000 | – | prevention of clinical re-narrowing after percutaneous transluminal angioplasty (re-narrowing): prevent clinical re-narrowing after percutaneous transluminal angioplasty; side effects on hepatic function (hepatic function): often causes side effects on hepatic function; inhibition at 10 µM (BALB/c 3T3 cells; concentration 10 μM): 19.2%; inhibition at 30 µM (BALB/c 3T3 cells; concentration 30 μM): 57.1%; inhibition at 100 µM (BALB/c 3T3 cells; concentration 100 μM): 92.5%; inhibition of PDGF-stimulated smooth muscle cell growth (smooth muscle cell [2]): reported to inhibit PDGF-stimulated smooth muscle cell growth; inhibition of growth of smooth muscle cell (smooth muscle cell [3]): inhibit growth of smooth muscle cell
CCOC(=O)c1cnn(-c2ccccc2)c1NC(=O)Nc1ccccc1 [Example 6, N-phenyl-N'-(4-ethoxycarbonyl-1-phenylpyrazol-5-yl)urea] | – | 49.9 | –
CCCCn1cc(C(=O)OCC)c(NC(=S)Nc2ccccc2)n1 [Example 3, N-phenyl-N'-(1-butyl-4-ethoxycarbonylpyrazol-3-yl)thiourea] | 1500 | 89.5 | –
CCCNC(=O)Nc1nn(Cc2ccccc2)cc1C(=O)OCC [Example 1, N-propyl-N'-(1-benzyl-4-ethoxycarbonylpyrazol-3-yl)urea] | 2300 | 84.5 | –
CCCNC(=O)Nc1c(C(=O)OCC)cnn1-c1ccccc1 [Example 7, N-propyl-N'-(4-ethoxycarbonyl-1-phenylpyrazol-5-yl)urea] | – | 36.4 | –
CCCN(CCC)C(=O)Nc1nn(Cc2ccccc2)cc1C(=O)OCC [Example 15, N, N-dipropyl-N'-(1-benzyl-4-ethoxycarbonylpyrazol-3-yl)urea] | 2200 | – | –
CCOC(=O)c1cn(Cc2ccccc2)nc1NC(=O)NC(C)C [Example 8, N-isopropyl-N'-(1-benzyl-4-ethoxycarbonylpyrazol-3-yl)urea] | 1300 | – | –
CCCCn1cc(C(=O)OCC)c(NC(=O)Nc2ccccc2)n1 [Example 2, N-phenyl-N'-(1-butyl-4-ethoxycarbonylpyrazol-3-yl)urea] | 3100 | 81.9 | –
